From US10494360B2, “Inhibitors of indoleamine 2,3-dioxygenase” (NETHERLANDS TRANSLATIONAL RESEARCH CENTER B.V., priority 2016, dated 2019)
“And” between values parts separate entries of the source, which are not always exact repeats. Equal values may be shown once.

How the values were obtained:
[1] = molecular target: T1, IDO1 (Homo sapiens, UniProt P14902); assay: Cell-based assay for IDO1 in interferon-γ stimulated A-375 melanoma cells; details: interferon-γ stimulation, 48 hours, read-out: IC50, cell-based IDO1 (NFK levels)
Experimental: The biological activity of IDO1 inhibitors can be measured by applying above detection methods to cells that are treated with test compound. The expression of IDO1 can be induced in many different cell lines by stimulation with IFNγ (Takikawa, O., et al., J. Biol. Chem. 263: 2041; 1988; Seegers, et al.), or IDO1 can be expressed in cells that lack endogenous IDO1 by transfection of an expression vector containing IDO1 cDNA.
A-375 melanoma cells were purchased from LGC Standards GmbH (Wesel, Germany) and cultured in DMEM tissue culture medium (Life Technologies, Bleiswijk, The Netherlands), supplemented with 10% (v/v) bovine calf serum. Compounds were dissolved in DMSO and diluted in DMEM. Final DMSO concentration in the assay was 0.4% (v/v). Eight thousand cells per well in 35 μl were seeded in a black 384-well tissue plate (cat. No. 781086; Greiner Bio-One GmbH, Frickenhausen, Germany) and allowed to adhere by incubation at 37° C., 95% humidity, and 5% CO2 overnight. Then, 5 μl of compound solution was added to the cells 1 hour prior to stimulation with 5 μl of 500 ng/ml interferon-γ (R&D Systems, Minneapolis, Minn., USA) diluted in DMEM medium. At the same time, 5 μl of L-tryptophan in 20 mM Hepes buffer pH 7.4 was added. Incubation was continued for 48 hours. To determine NFK levels, 12 μl NFK Green™ (NTRC, Oss, The Netherlands) was added to each well, and the plate was sealed and incubated for 4 hours at 37° C. Fluorescence was measured on an EnVision multimode reader (Perkin Elmer, Waltham, Mass., USA). IC50 were calculated using XLfit™ software (ID Business Solutions, Ltd., Surrey, U.K.).

[2] = molecular target: T1, IDO1; assay: Biochemical IDO1 assay (NFK GreenScreen); set-up: Recombinant full-length IDO1 (Seegers, N., et al.) and all other assay components were diluted in IDO1 reaction buffer; made in house; details: recombinant full-length IDO1 25 nM, L-tryptophan 100 μM, NFK Green detection; read-out: IC50, inhibitory potency on IDO1
Procedure, shortened: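 Recombinant full-length IDO1 in 50 mM NaH2PO4 pH 7.0 with 0.05% Tween-20 and 1% glycerol converted 100 μM L-tryptophan (final) over 60 min at room temperature with compound, 0.3% DMSO.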

[3] = system: melanoma; details: Yue et al. 2009; cited from earlier work
[4] = molecular target: tryptophan 2,3-dioxygenase (TDO) (Homo sapiens, UniProt P48775); details: Seegers et al. 2014; cited from earlier work
tryptophan 2,3-dioxygenase (TDO), sequence (P48775 whole entry, species assumed): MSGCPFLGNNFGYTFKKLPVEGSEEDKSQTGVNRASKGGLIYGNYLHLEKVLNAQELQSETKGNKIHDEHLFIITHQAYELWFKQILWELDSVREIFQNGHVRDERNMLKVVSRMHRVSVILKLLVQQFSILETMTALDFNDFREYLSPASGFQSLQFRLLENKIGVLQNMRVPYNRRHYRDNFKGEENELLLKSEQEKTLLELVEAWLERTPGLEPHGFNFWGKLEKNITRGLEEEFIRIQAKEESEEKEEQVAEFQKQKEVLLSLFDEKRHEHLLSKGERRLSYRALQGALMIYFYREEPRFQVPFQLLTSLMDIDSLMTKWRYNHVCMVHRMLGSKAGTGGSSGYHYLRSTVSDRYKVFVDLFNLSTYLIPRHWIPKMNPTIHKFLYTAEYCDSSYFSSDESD

T1 sequence (P14902 whole entry, species assumed): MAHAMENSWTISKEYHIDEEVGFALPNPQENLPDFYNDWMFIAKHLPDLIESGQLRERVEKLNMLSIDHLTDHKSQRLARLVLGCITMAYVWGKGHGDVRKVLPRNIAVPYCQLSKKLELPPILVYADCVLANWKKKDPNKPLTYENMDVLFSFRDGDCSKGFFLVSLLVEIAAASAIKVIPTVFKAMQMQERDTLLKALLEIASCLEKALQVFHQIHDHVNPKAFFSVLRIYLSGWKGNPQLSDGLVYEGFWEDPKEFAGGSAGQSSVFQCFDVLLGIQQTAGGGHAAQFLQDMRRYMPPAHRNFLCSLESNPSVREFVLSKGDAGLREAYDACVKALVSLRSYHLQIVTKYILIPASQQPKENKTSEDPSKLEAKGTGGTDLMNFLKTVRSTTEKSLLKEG

IC50 [1] | IC50 [2] | Structure (SMILES) | tumor growth in mouse model for melanoma [3] | inhibition of TDO activity in biochemical assays [4]
< 5 µM | ≤ 1 µM | O=C1CN(C(=O)c2c(F)c(F)c(F)c(F)c2F)C(c2cccc(Br)c2)N1O (stereo not shown) [Example 62, 2-(3-Bromophenyl)-3-hydroxy-1-(2,3,4,5,6-pentafluorobenzoyl)imidazolidin-4-one] |  | 
< 5 µM | ≤ 1 µM | COc1cc(F)c(C(=O)N2CC(=O)N(O)C2c2cccc(Br)c2)c(F)c1 (stereo not shown) [Example 66, 2-(3-Bromophenyl)-1-(2,6-difluoro-4-methoxy-benzoyl)-3-hydroxy-imidazolidin-4-one] |  | 
< 5 µM | ≤ 1 µM | O=C1CN(C(=O)c2c(F)cc(F)cc2F)C(c2cccc(Br)c2)N1O (stereo not shown) [Example 82, 2-(3-Bromophenyl)-3-hydroxy-1-(2,4,6-trifluorobenzoyl)imidazolidin-4-one] |  | 
< 5 µM | ≤ 1 µM | O=C1CN(C(=O)c2ccncc2F)C(c2cccc(Br)c2)N1O (stereo not shown) [Example 86, 2-(3-Bromophenyl)-1-(3-fluoropyridine-4-carbonyl)-3-hydroxy-imidazolidin-4-one] |  | 
< 5 µM | ≤ 1 µM | C#Cc1cccc(C2N(O)C(=O)CN2C(=O)c2c(F)cccc2F)c1 (stereo not shown) [Example 98, 1-(2,6-Difluorobenzoyl)-2-(3-ethynylphenyl)-3-hydroxy-imidazolidin-4-one] |  | 
< 5 µM | ≤ 5 µM and 1 to 5 µM | O=C1CN(C(=O)c2c(F)cccc2F)C(c2cccc(C3CC3)c2)N1O (stereo not shown) [Example 99, 2-(3-Cyclopropylphenyl)-1-(2,6-difluorobenzoyl)-3-hydroxy-imidazolidin-4-one] |  | 
< 5 µM | ≤ 1 µM | O=C1CN(C(=O)c2c(F)cc(C#CC3CC3)cc2F)C(c2cccc(Br)c2)N1O (stereo not shown) [Example 106, 2-(3-Bromophenyl)-1-[4-(2-cyclopropylethynyl)-2,6-difluoro-benzoyl]-3-hydroxy-imidazolidin-4-one] |  | 
< 5 µM | ≤ 1 µM | O=C1CN(C(=O)c2c(F)cc(C3CC3)cc2F)C(c2cccc(Br)c2)N1O (stereo not shown) [Example 114, 2-(3-Bromophenyl)-1-(4-cyclopropyl-2,6-difluoro-benzoyl)-3-hydroxy-imidazolidin-4-one] |  | 
< 5 µM | ≤ 1 µM | Cc1cc(F)c(C(=O)N2CC(=O)N(O)C2c2cccc(Br)c2)c(F)c1 (stereo not shown) [Example 116, 2-(3-Bromophenyl)-1-(2,6-difluoro-4-methyl-benzoyl)-3-hydroxy-imidazolidin-4-one] |  | 
< 5 µM | ≤ 1 µM | Cn1cc(-c2cc(F)c(C(=O)N3CC(=O)N(O)C3c3cccc(Br)c3)c(F)c2)cn1 (stereo not shown) [Example 119, 2-(3-Bromophenyl)-1-[2,6-difluoro-4-(1-methylpyrazol-4-yl)benzoyl]-3-hydroxy-imidazolidin-4-one] |  | 
< 5 µM | ≤ 1 µM | O=C1CN(C(=O)c2c(F)cc(-c3cccs3)cc2F)C(c2cccc(Br)c2)N1O (stereo not shown) [Example 120, 2-(3-Bromophenyl)-1-[2,6-difluoro-4-(2-thienyl)benzoyl]-3-hydroxy-imidazolidin-4-one] |  | 
< 5 µM | ≤ 1 µM | O=C1CN(Cc2ccccc2F)C(c2cccc(Br)c2)N1O (stereo not shown) [Example 125, 2-(3-Bromophenyl)-1-[(2-fluorophenyl)methyl]-3-hydroxy-imidazolidin-4-one] |  | 
< 5 µM | ≤ 1 µM | C=Cc1cccc(C2N(O)C(=O)CN2C(=O)c2c(F)cccc2F)c1 (stereo not shown) [Example 129, 1-(2,6-Difluorobenzoyl)-3-hydroxy-2-(3-vinylphenyl)imidazolidin-4-one] |  | 

Continued, molecule first:

Structure (SMILES) | IC50 [1] | IC50 [2] | tumor growth in mouse model for melanoma [3] | inhibition of TDO activity in biochemical assays [4]
O=C1CN(C(=O)c2c(F)cccc2F)C(c2cccc([N+](=O)[O-])c2)N1O (stereo not shown) [Example 67, 1-(2,6-Difluorobenzoyl)-3-hydroxy-2-(3-nitrophenyl)imidazolidin-4-one] | < 5 µM | ≤ 1 µM |  | 
O=C1CN(C(=O)c2c(F)cccc2F)C(c2cccc(I)c2)N1O (stereo not shown) [Example 71, 1-(2,6-Difluorobenzoyl)-3-hydroxy-2-(3-iodophenyl)imidazolidin-4-one] | < 5 µM | ≤ 1 µM |  | 
O=C1CN(C(=O)c2c(F)cccc2Cl)C(c2cccc(I)c2)N1O (stereo not shown) [Example 72, 1-(2-chloro-6-fluoro-benzoyl)-3-hydroxy-2-(3-iodophenyl)imidazolidin-4-one] | < 5 µM | ≤ 1 µM |  | 
O=C1CN(C(=O)c2ccccc2F)C(c2cccc(I)c2)N1O (stereo not shown) [Example 73, 1-(2-Fluorobenzoyl)-3-hydroxy-2-(3-iodophenyl)imidazolidin-4-one] | < 5 µM | ≤ 1 µM |  | 
Nc1ccc(F)c(C(=O)N2CC(=O)N(O)C2c2cccc(Br)c2)c1F (stereo not shown) [Example 76, 1-(3-Amino-2,6-difluoro-benzoyl)-2-(3-bromophenyl)-3-hydroxy-imidazolidin-4-one] | < 5 µM | ≤ 1 µM |  | 
O=C1CN(C(=O)c2c(F)cc(Br)cc2F)C(c2cccc(Br)c2)N1O (stereo not shown) [Example 85, 1-(4-Bromo-2,6-difluoro-benzoyl)-2-(3-bromophenyl)-3-hydroxy-imidazolidin-4-one] | < 5 µM | ≤ 1 µM |  | 
O=C1CN(C(=O)c2cccnc2F)C(c2cccc(Br)c2)N1O (stereo not shown) [Example 87, 2-(3-Bromophenyl)-1-(2-fluoropyridine-3-carbonyl)-3-hydroxy-imidazolidin-4-one] | < 5 µM | ≤ 1 µM |  | 
CC(C)C#Cc1cc(F)c(C(=O)N2CC(=O)N(O)C2c2cccc(Br)c2)c(F)c1 (stereo not shown) [Example 107, 2-(3-Bromophenyl)-1-[2,6-difluoro-4-(3-methylbut-1-ynyl)benzoyl]-3-hydroxy-imidazolidin-4-one] | < 5 µM | ≤ 1 µM |  | 
O=C1CN(C(=O)c2c(F)cc(C#CC3CCCCC3)cc2F)C(c2cccc(Br)c2)N1O (stereo not shown) [Example 108, 2-(3-Bromophenyl)-1-[4-(2-cyclohexylethynyl)-2,6-difluoro-benzoyl]-3-hydroxy-imidazolidin-4-one] | < 5 µM | ≤ 1 µM |  | 
C=Cc1cc(F)c(C(=O)N2CC(=O)N(O)C2c2cccc(Br)c2)c(F)c1 (stereo not shown) [Example 115, 2-(3-Bromophenyl)-1-(2,6-difluoro-4-vinyl-benzoyl)-3-hydroxy-imidazolidin-4-one] | < 5 µM | ≤ 1 µM |  | 
O=C1CN(C(=O)c2c(F)cc(-c3ccncc3)cc2F)C(c2cccc(Br)c2)N1O (stereo not shown) [Example 118, 2-(3-Bromophenyl)-1-[2,6-difluoro-4-(4-pyridyl)benzoyl]-3-hydroxy-imidazolidin-4-one] | < 5 µM | ≤ 1 µM |  | 
O=C1CN(Cc2ccccc2F)C(c2cccc(I)c2)N1O (stereo not shown) [Example 124, 1-[(2-Fluorophenyl)methyl]-3-hydroxy-2-(3-iodophenyl)imidazolidin-4-one] | < 5 µM | ≤ 1 µM |  | 
O=C1CN(Cc2c(F)cccc2F)C(c2cccc(Br)c2)N1O (stereo not shown) [Example 127, 2-(3-Bromophenyl)-1-[(2,6-difluorophenyl)methyl]-3-hydroxy-imidazolidin-4-one] | < 5 µM | ≤ 1 µM |  | 
COCCNC(=O)c1cc(F)c(C(=O)N2CC(=O)N(O)C2c2cccc(Br)c2)c(F)c1 (stereo not shown) [Example 137, 4-[2-(3-Bromophenyl)-3-hydroxy-4-oxo-imidazolidine-1-carbonyl]-3,5-difluoro-N-(2-methoxyethyl)benzamide] | < 5 µM | ≤ 1 µM |  | 
COCCNC(=O)c1c(Br)cc(F)c(C(=O)N2CC(=O)N(O)C2c2cccc(Br)c2)c1F (stereo not shown) [Example 138, 6-Bromo-3-[2-(3-bromophenyl)-3-hydroxy-4-oxo-imidazolidine-1-carbonyl]-2,4-difluoro-N-(2-methoxyethyl)benzamide] | < 5 µM | ≤ 1 µM |  | 
Nc1nonc1C(=NO)Nc1ccc(F)c(Cl)c1 [compound 51, 4-amino-N-(3-chloro-4-fluorophenyl)-N′-hydroxy-1,2,5-oxadiazole-3-carboximidamide] |  |  | reduction of tumor growth | inhibit the activity of tryptophan 2,3-dioxygenase (TDO)
